In patent publication US20240043470A1, “MACROCYCLIC COMPOUNDS AS PROTEASOME INHIBITORS” (CORNELL UNIVERSITY, priority 2017, published 2024):
Like-named read-outs stand apart in the source and are kept apart here.

Key:
[1] = rcm bond, 1,2-dichloroethane
β5i of hu i-20S = β5i of hu i-20S (Homo sapiens (Human), UniProt P20618+P28062); assay: IC50 determination against β5i of human immunoproteasome (Ac-ANW-AMC hydrolysis); assay type: biochemical; details: β5i, 0.4 nM i-20S, 15 μM Ac-ANW-AMC;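 also: enzyme activity taken as the initial reaction velocity per well, with SDS added to activate the proteasome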
β5c of hu c-20S = β5c of hu c-20S (Homo sapiens (Human), UniProt P20618+P28074); assay: IC50 determination against β5c of human constitutive proteasome (suc-LLVY-AMC hydrolysis); assay type: biochemical; details: 0.2 nM c-20S, 25 μM suc-LLVY-AMC;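 also: IC50 obtained by fitting initial reaction velocities to a dose-dependent inhibition model, with SDS present as proteasome activator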

Row | Structure (SMILES) | ring closure, yield of all isomers ([1]; from C=CCOc1cccc(C[C@@H](C(=O)N[C@@H](CCN2CCC(F)(F)CC2)C(=O)N[C@@H](CC=C)C(=O)NC2CCCC2)N2CCCC2=O)c1, Grubbs catalyst 2nd Generation, 5.07 mM, 60.0 °C, 12.0 h) [%] | ring closure, yield of all isomers ([1]; from C=CCCCCC[C@H](NC(=O)[C@H](CC(=O)OCc1ccccc1)NC(=O)C(CCC=C)Cc1ccccc1)C(=O)OC, Grubbs 2nd generation, 10.75 mM, 50.0 °C, 24.0 h) [%] | IC50 (β5i of hu i-20S) [µM] | IC50 (β5c of hu c-20S) [µM]
1 | O=C(NC1CCCC1)[C@@H]1CC=CCOc2cccc(c2)C[C@H](N2CCCC2=O)C(=O)N[C@@H](CCN2CCC(F)(F)CC2)C(=O)N1 | 61.6 | – | – | –
2 | COC(=O)[C@@H]1CCCCCC=CCCC(Cc2ccccc2)C(=O)N[C@@H](CC(=O)OCc2ccccc2)C(=O)N1 (some centres unmarked) | – | 53 | – | –
3 | O=C1CCc2cccc(c2)OCCCC[C@@H](C(=O)NC2CCCC2)NC(=O)[C@H](CC(=O)N2CCCC2C2CC2)N1 (single isomer, unassigned) [Compound 3-45-B] | – | – | > 100 | 3.6
4 | CN1C(=O)[C@@H](N2CCCC2=O)Cc2cccc(c2)Oc2cccc(c2)C[C@@H](C(=O)NCC(F)(F)F)NC(=O)[C@@H]1CCc1ccccc1 [Compound 1-64] | – | – | 2.72 | > 100
5 | CC(C)(C)OC(=O)N[C@H]1Cc2cccc(c2)Oc2cccc(c2)C[C@@H](C(=O)OCc2ccccc2)NC(=O)[C@H](CCc2ccccc2)NC1=O [Compound 1-50, Benzyl-(S,8S,11S)-11-((tert-butoxycarbonyl)amino)-7,10-dioxo-8-phenethyl-2-oxa-6,9-diaza-1,3(1,3)-dibenzenacyclododecaphane-5-carboxylate] | – | – | > 100 | > 100
6 | O=C(NCc1ncco1)[C@@H]1CCCCOc2cccc(c2)C[C@H](N2CCCC2=O)C(=O)N[C@@H](CCc2ccccc2)C(=O)N1 [Compound 3-16] | – | – | 82 | 31.9
7 | O=C1CCc2cccc(c2)OCCCC[C@@H](C(=O)NC2CCCC2)NC(=O)[C@H](CCc2ccc(F)cc2)N1 [Compound 3-39, (7S,10S)—N-Cyclopentyl-10-(4-fluorophenethyl)-9,12-dioxo-2-oxa-8,11-diaza-1(1,3)-benzenacyclotetradecaphane-7-carboxamide] | – | – | > 100 | 38.6
8 | O=C1CCc2cccc(c2)OCCCC[C@@H](C(=O)NC2CCCC2)NC(=O)[C@H](CC(=O)N2CCCC2C2CC2)N1 (single isomer, unassigned) [Compound 3-45-A] | – | – | > 100 | 12.3
9 | O=C1CCCCCCCCOC[C@@H](C(=O)NCc2cccc3ccccc23)NC(=O)[C@H](CC(=O)N2CCCC2)N1 [Compound 4-15, (3S,6S)—N-(Naphthalen-1-ylmethyl)-5,8-dioxo-6-(2-oxo-2-(pyrrolidin-1-yl)ethyl)-1-oxa-4,7-diazacyclohexadecane-3-carboxamide] | – | – | 4.71 | 3.67
10 | CC(=O)N[C@H]1Cc2cccc(c2)OCCCC[C@@H](C(=O)NCC(F)(F)F)NC(=O)[C@H](CCc2ccccc2)NC1=O [Compound 3-02, (3S,6S,9S)-3-Acetamido-4,7-dioxo-6-(2-phenylethyl)-N-(2,2,2-trifluoroethyl)-14-oxa-5,8-diazabicyclo[13.3.1]nonadeca-1(19),15,17-triene-9-carboxamide] | – | – | 5.88 | 0.433
11 | O=C1CCc2cccc(c2)Oc2ccc(cc2)C[C@@H](C(=O)NCc2ccccc2F)NC(=O)[C@H](CC(=O)N2CCC[C@@H]2c2ccccc2)N1 [Compound 2-02-B, (5S,8S)—N-(2-Fluorobenzyl)-7,10-dioxo-8-(2-oxo-2-((R)-2-phenylpyrrolidin-1-yl)ethyl)-2-oxa-6,9-diaza-1(1,3),3(1,4)-dibenzenacyclododecaphane-5-carboxamide] | – | – | 6.75 | > 100
12 | C[C@@H]1Cc2cccc(c2)OCCCC[C@@H](C(=O)NC2CCCC2)NC(=O)[C@H](CCN2CCOCC2)NC1=O (single isomer, unassigned) [Compound 3-38] | – | – | > 100 | 21.5
13 | O=C1CCCCCCCCCC[C@@H](C(=O)NCc2cccc3ccccc23)NC(=O)[C@H](CC(=O)N2CCCC2)N1 [Compound 4-06, (2S,5S)—N-(1-Naphthylmethyl)-3,16-dioxo-2-(2-oxo-2-pyrrolidin-1-yl-ethyl)-1,4-diazacyclohexadecane-5-carboxamide] | – | – | 3.52 | > 100
14 | O=C1CCCCCCCCC[C@@H](C(=O)NCc2cccc3ccccc23)NC(=O)[C@H](CC(=O)N2CCCC2)N1 [Compound 4-07] | – | – | 61.3 | > 100
15 | O=C1CCc2cccc(c2)Oc2ccc(cc2)C[C@@H](C(=O)NCc2cccc3ccccc23)NC(=O)[C@H](CC(=O)N2CCCC2)N1 (single isomer, unassigned) [Compound 2-03-A, N-(Naphthalen-1-ylmethyl)-7,10-dioxo-8-(2-oxo-2-(pyrrolidin-1-yl)ethyl)-2-oxa-6,9-diaza-1(1,3),3(1,4)-dibenzenacyclododecaphane-5-carboxamide] | – | – | 10.1 | 18.5
16 | O=C(CC(F)(F)F)N[C@H]1Cc2cccc(c2)Oc2cccc(c2)C[C@@H](C(=O)NCC(F)(F)F)NC(=O)[C@H](CCc2ccccc2)NC1=O [Compound 1-55, (5S,8S,11S)-7,10-Dioxo-8-phenethyl-N-(2,2,2-trifluoroethyl)-11-(3,3,3-trifluoropropanamido)-2-oxa-6,9-diaza-1,3(1,3)-dibenzenacyclododecaphane-5-carboxamide] | – | – | > 100 | > 100
17 | Cn1cc(CNC(=O)[C@@H]2Cc3cccc(c3)Oc3cccc(c3)C[C@H](NC(=O)CO)C(=O)N[C@@H](CCc3ccccc3)C(=O)N2)cn1 [Compound 1-05] | – | – | 14.8 | > 100
18 | O=C1CCCCCCCCCC[C@@H](C(=O)NCc2ccccc2F)NC(=O)[C@H](CC(=O)N2CCCC2C2COC2)N1 (some centres unmarked) [Compound 4-17] | – | – | 0.11 | 0.88

Row | Structure (SMILES) | ring closure, yield of all isomers ([1]; from C=CCOc1cccc(C[C@@H](C(=O)N[C@@H](CCN2CCC(F)(F)CC2)C(=O)N[C@@H](CC=C)C(=O)NC2CCCC2)N2CCCC2=O)c1, Grubbs catalyst 2nd Generation, 5.07 mM, 60.0 °C, 12.0 h) [%] | ring closure, yield of all isomers ([1]; from C=CCCCCC[C@H](NC(=O)[C@H](CC(=O)OCc1ccccc1)NC(=O)C(CCC=C)Cc1ccccc1)C(=O)OC, Grubbs 2nd generation, 10.75 mM, 50.0 °C, 24.0 h) [%] | IC50 (β5i of hu i-20S) [µM] | IC50 (β5c of hu c-20S) [µM]
19 | CN(C)[C@H]1Cc2cccc(c2)OCCCC[C@@H](C(=O)NC2CCCC2)NC(=O)[C@H](CCc2ccc(F)cc2)NC1=O [Compound 3-36] | – | – | > 100 | 9.5
20 | O=C(NCc1ccccc1)[C@@H]1Cc2cccc(c2)Oc2cccc(c2)C[C@H](N2CCCC2)C(=O)N[C@@H](CCc2ccccc2)C(=O)N1 [Compound 1-17] | – | – | 6.6 | 42.5
21 | O=C1CCCCCCCCCC[C@@H](C(=O)NCc2cccc3ccccc23)NC(=O)[C@H](CC(=O)N2CCC[C@@H]2c2ccccc2)N1 [Compound 4-08] | – | – | 33.4 | > 100
22 | CN(C)[C@H]1Cc2cccc(c2)Oc2cccc(c2)C[C@@H](C(=O)NCC(F)(F)F)NC(=O)[C@H](CCc2ccccc2)NC1=O [Compound 1-57, (5S,8S,11S)-11-(Dimethylamino)-7,10-dioxo-8-phenethyl-N-(2,2,2-trifluoroethyl)-2-oxa-6,9-diaza-1,3(1,3)-dibenzenacyclododecaphane-5-carboxamide] | – | – | 18.7 | 1.1
23 | O=C1CCc2cccc(c2)OCCCC[C@@H](C(=O)NC2CCCC2)NC(=O)[C@H](CCN2CCC(F)(F)CC2)N1 [Compound 3-43] | – | – | > 100 | 75.5
24 | CN(Cc1ccccc1)C(=O)[C@@H]1CCCCOc2cccc(c2)C[C@H](N2CCCC2=O)C(=O)N[C@@H](CCc2ccc(F)cc2)C(=O)N1 [Compound 3-44] | – | – | > 100 | 5.15
25 | CC(C)(C)NC(=O)[C@@H]1Cc2cccc(c2)Oc2cccc(c2)C[C@H](NS(C)(=O)=O)C(=O)N[C@@H](CCc2ccccc2)C(=O)N1 [Compound 1-37] | – | – | > 100 | 3.6
26 | COC1(CNC(=O)[C@@H]2Cc3cccc(c3)Oc3cccc(c3)CCC(=O)N[C@@H](CCN3CCOCC3)C(=O)N2)CC1 [Compound 1-90] | – | – | > 100 | 68.1
27 | O=C1CCc2cccc(c2)OCCCC[C@@H](C(=O)NCc2ccccc2F)NC(=O)[C@H](CCc2ccc(F)cc2)N1 [Compound 3-41] | – | – | > 100 | 56
28 | O=C1CCc2cccc(c2)OCCCC[C@@H](C(=O)NCc2ccccc2F)NC(=O)[C@H](CC(=O)N2CCCC2C2CC2)N1 (single isomer, unassigned) [Compound 3-46-B] | – | – | 0.312 | 1.35
29 | O=C1CCc2cccc(c2)OCCCC[C@@H](C(=O)NCc2ccccc2F)NC(=O)[C@H](CC(=O)N2CCCC2C2CC2)N1 (single isomer, unassigned) [Compound 3-46-A] | – | – | 0.068 | 0.0723
30 | C[C@H]1Cc2cccc(c2)OCCCC[C@@H](C(=O)NC2CCCC2)NC(=O)[C@H](CCN2CCOCC2)NC1=O (single isomer, unassigned) [Compound 3-37] | – | – | > 100 | 56.7
31 | CN1CCN(C(=O)[C@@H]2Cc3cccc(c3)Oc3cccc(c3)C[C@H](NC(=O)c3ccccn3)C(=O)N[C@@H](CCc3ccccc3)C(=O)N2)CC1 [Compound 1-52] | – | – | 33.9 | 30.7
32 | CC(=O)N[C@H]1Cc2cccc(c2)OC/C=C/C[C@@H](C(=O)NCC(F)(F)F)NC(=O)[C@H](CCc2ccccc2)NC1=O [Compound 3-01, (7S,10S,13S,E)-13-Acetamido-9,12-dioxo-10-phenethyl-N-(2,2,2-trifluoroethyl)-2-oxa-8,11-diaza-1(1,3)-benzenacyclotetradecaphan-4-ene-7-carboxamide] | – | – | 15.6 | 0.78
33 | O=C1CCc2cccc(c2)Oc2ccc(cc2)CC(C(=O)NCc2cccc3ccccc23)NC(=O)C(CC(=O)N2CCCC2)N1 (centres unmarked) [Compound 2-03-B, N-(Naphthalen-1-ylmethyl)-7,10-dioxo-8-(2-oxo-2-(pyrrolidin-1-yl)ethyl)-2-oxa-6,9-diaza-1(1,3),3(1,4)-dibenzenacyclododecaphane-5-carboxamide] | – | – | 0.96 | > 100
34 | O=C1CCc2cccc(c2)OCCCC[C@@H](C(=O)NCc2ccccc2F)NC(=O)[C@H](CCN2CCOCC2)N1 [Compound 3-26] | – | – | 3.5 | 3.4
35 | COC(=O)C1COCCOc2cccc(c2)CCC(=O)NC(CCc2ccccc2)C(=O)N1 [Compound 3-05, Methyl-(7S,10S)-9,12-dioxo-10-phenethyl-2,5-dioxa-8,11-diaza-1(1,3)-benzenacyclotetradecaphane-7-carboxylate] | – | – | > 10 | 23.1
